Three substances from patent publication US8796415B2, “Inhibitors of guanine exchange factors and their use as anticancer drugs” (Centre National de la Recherche Scientifique, priority 2009, dated 2014) can be followed below.

“Also recorded” adds a separate entry of the source. Ends that are not written are not given here.

Experiment [1] addresses Tgat. The experiment is described as follows: FRET fluorescence nucleotide exchange kinetics assay, Tgat/RhoA. The class given is biochemical. The note with it: for Ki / inhibition of Tgat GEF activity in kinetics fluorescence assay: RhoA 1 μM, Tgat 0.5 μM; for Ki: GST-TRIP peptides up to 100 μM, read-out: apparent inhibition constant (Kiapp) towards Tgat; for inhibition of Tgat GEF activity in kinetics fluorescence assay: increasing GST-TRIP peptide concentrations up to 100 μM; for efficiency at inhibiting the exchange activity of Tgat relative to TRIPα: from Kiapp values. How it is done: FIG. 4 represents the inhibition of Tgat GEF activity by TRIPT16M/L17S (SEQ ID NO: 41) and TRIPE32G (SEQ ID NO: 40) in vitro. FRET fluorescence exchange assays were performed using constant concentrations of RhoA (1 μM), equal amounts (0.5 μM) of Tgat (left panel) or Trio DH2 (right panel), and increasing concentrations of GST-TRIP peptides, up to 100 μM. Results were expressed as kobs values plotted as a function of the indicated TRIP inhibitor concentration.
FIG. 5 represents a histogram showing the apparent inhibition constants (Ki app) of the TRIP peptides for Tgat and Trio DH2, as indicated. The values and error bars are calculated from at least three independent experiments. Error bars represent standard deviation
Specific exchange rates of Tgat were measured with a fluorescence-based kinetics assay, using a 6His-RhoA construct (gift of Dr Derewenda, Charlottesville University, Virginia) purified as described (Oleksy et al., 2004). Exchange activities were followed by fluorescence resonance energy transfer (FRET) between the GTPase tryptophanes (λex=292 nm) and the methylanthranyloil group of mant-GTP (λem=440 nm) as described (Zeeh et al., 2006). All fluorescence measurements were performed with a CARY Eclipse fluorimeter (Varian). For each kobs determination, RhoA (1 μM) and Tgat (or Trio DH2) were preincubated 3 min at 25° C. in 700 μL reaction buffer (50 mM Tris pH 7.5, 50 mM NaCl, 2 mM MgCl2, 1 mM DTT). The exchange reaction was initiated by 10 μM mant-GTP and measured for 10 min until the plateau was reached. kobs were calculated by fitting the FRET fluorescence changes to a single exponential, using the Kaleidagraph software. Specific exchange activities were calculated by linear regression of kobs values determined for a range of GEF concentrations (0, 0.2, 0.3, 0.4, 0.5 and 1 μM).
Radioactive [3H]-GDP dissociation assays were performed as described (Schmidt et al., 2002). Briefly, 0.15 μM GST-Trio DH2-PH2 was preincubated for 15 min with 3 μM of GST-TRIP inhibitors. The reaction was started by addition of 0.4 μM [3H]-GDP-loaded RhoA and 1 mM GTP, and the reaction mix was filtered after 0 min and 15 min incubation at 25° C. Inhibition efficiency is expressed as the ratio between [3H]-GDP-bound RhoA at 15 and 0 min. Apparent inhibition constants (Kiapp) of TRIP-like peptides were determined from kobs values obtained at increasing peptide concentrations using the above fluorescence nucleotide exchange assay. Kiapp was calculated from the hyperbolic fit of kobs values as a function of the inhibitor concentration as described (Zeeh et al., 2006). TRIP-like peptide specificity was assayed using mant-GTP fluorescence kinetics (λex=360 nm, λem=460 nm) in a FLX800 Microplate Fluorescence Reader (BioTek Instruments). 0.5 μM Tgat, p63RhoGEF, Lbc, and p115RhoGEF, or 0.1 μM Dbl and Trio DH1-PH1 were preincubated 5 min at 25° C. in the presence of 20 μM GST, GST-TRIPE32G or TRIPT16M/L17S and 1 μM mant-GTP. The exchange reaction was initiated by addition of 1 μM RhoA or RhoG and monitored for 10 min.

The test system of experiment [2] is Tgat. The experiment is described as follows: mant-GTP fluorescence kinetics specificity assay, RhoA/Tgat. Type of experiment: biochemical. Particulars: peptide 20 μM, 0.5 μM Tgat, 1 μM RhoA, 1 μM mant-GTP. How it is done: (§1) Figures represent the comparison of TRIPE32G and TRIPT16M/L17S inhibition efficiency on different GTPase/RhoGEF systems, using 1 μM GTPase and 0.5 μM GEF as follows:
(§2) In each assay, the peptides were used at a concentration of 20 μM, corresponding to a 40 fold molar excess of inhibitor versus GEF. All fluorescence kinetics assays were performed using 1 μM mant-GTP. Results are expressed as Relative Fluorescence Units (RFU) versus time. The reaction performed in the absence of GEF reflects the spontaneous exchange activity of the GTPase.
(§3) Radioactive [3H]-GDP dissociation assays were performed as described (Schmidt et al., 2002). […] Inhibition efficiency is expressed as the ratio between [3H]-GDP-bound RhoA at 15 and 0 min. Apparent inhibition constants (Kiapp) of TRIP-like peptides were determined from kobs values obtained at increasing peptide concentrations using the above fluorescence nucleotide exchange assay. Kiapp was calculated from the hyperbolic fit of kobs values as a function of the inhibitor concentration as described (Zeeh et al., 2006). TRIP-like peptide specificity was assayed using mant-GTP fluorescence kinetics (λex=360 nm, λem=460 nm) in a FLX800 Microplate Fluorescence Reader (BioTek Instruments). […] The exchange reaction was initiated by addition of 1 μM RhoA or RhoG and monitored for 10 min.

A further experiment addresses T1, Lbc (Homo sapiens, UniProt Q12802).
T1 construct: GST-Dbl (DH-PH domain), GST-Lbc (DH-PH), GST-p63RhoGEF (DH domain) and GST-RhoG were purified as described previously; GST (N); made in house
T1 sequence (Q12802 1994-2333): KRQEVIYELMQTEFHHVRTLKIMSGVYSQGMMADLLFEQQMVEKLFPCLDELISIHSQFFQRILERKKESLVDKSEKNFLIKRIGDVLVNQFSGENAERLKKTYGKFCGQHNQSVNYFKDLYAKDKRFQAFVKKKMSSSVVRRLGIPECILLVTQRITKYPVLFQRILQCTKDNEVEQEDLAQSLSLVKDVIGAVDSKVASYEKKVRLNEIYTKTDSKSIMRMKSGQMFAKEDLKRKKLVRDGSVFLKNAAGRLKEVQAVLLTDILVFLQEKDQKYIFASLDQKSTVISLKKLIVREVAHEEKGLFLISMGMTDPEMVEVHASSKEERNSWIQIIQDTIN
The experiment in a line: mant-GTP fluorescence kinetics specificity assay, RhoA/Lbc. Type of experiment: biochemical. Particulars: peptide 20 μM, 0.5 μM GEF, 1 μM RhoA. As for the experimental part:
as §1, §2, §3

The target of the next experiment is T2, p63RhoGEF (Homo sapiens, UniProt Q86VW2).
T2 construct: GST-p63RhoGEF (DH domain) and GST-RhoG were purified as described previously; GST (N); made in house
The experiment in a line: mant-GTP fluorescence kinetics specificity assay, RhoA/p63RhoGEF. The note with it: peptide 20 μM, 0.5 μM GEF, 1 μM RhoA. The class given is biochemical. How it is done:
as §1, §2, §3

The target of another experiment is T3, Trio DH1-PH1 (Homo sapiens, UniProt O75962).
T3 construct: Recombinant GST-Trio DH2-PH2, GST-Trio DH1-PH1, GST-Dbl (DH-PH domain); GST (N); made in house
The experiment is described as follows: mant-GTP fluorescence kinetics specificity assay, RhoG/Trio DH1-PH1. Particulars: peptide 20 μM, 1 μM RhoG. Type of experiment: biochemical. How it is done:
as §1, §2, §3

Experiment [3] relates to Tgat-mediated RhoA activation. The experiment in a line: RhoA activation assay (GST-RBD pull-down) in NIH3T3 cells stably expressing Tgat. The class given is cell-based. Particulars: NIH3T3-Tgat cells transfected with GFP-tagged peptide. As for the experimental part: The RhoA activation in NIH3T3-Tgat cells stably transfected with GFP, GFP-TRIPE32G or GFPTRIP T16M/L17S was assayed by the GST-RBD-pulldown assay as described in FIG. 2A.
The level of GTP-bound RhoA was measured by a GST pulldown assay as described (Schmidt et al., 2002). Briefly, cell lysates were incubated with glutathione beads coated with the recombinant Rho-binding domain (RBD) of the RhoA specific effector Rhotekin (Cytoskeleton Inc.).

T2 sequence (Q86VW2 160-336 limits assumed): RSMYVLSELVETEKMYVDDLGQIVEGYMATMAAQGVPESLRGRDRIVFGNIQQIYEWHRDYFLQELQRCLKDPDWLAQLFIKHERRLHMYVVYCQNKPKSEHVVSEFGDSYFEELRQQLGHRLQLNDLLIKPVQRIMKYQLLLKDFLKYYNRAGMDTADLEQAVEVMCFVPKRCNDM

For the substance “AREGADGAICGYNLATLVMLGPSERVFCPLCEPCSSDIYELM [TRIPα]”, on Tgat [1], the Ki amounted to 89 ± 33 µM and the “inhibition of Tgat GEF activity in kinetics fluorescence assay” value (shortened to “inhibition of Tgat GEF activity”) was “rather ineffective”. The “inhibition of Tgat GEF activity” value with Tgat [1] (listed as GST-TRIPα) was “no effect”.

With “GST-TRIPE32G (AREGADGAICGYNLATLVMLGPSERVFCPLCGPCSSDIYELM; cysteine pairing not given here; also: GST fusion)”, in the experiment on Tgat [1], the “efficiency relative to TRIPα (Tgat GEF activity)” value is given as 15 fold, the Ki was determined as 7.4 ± 5 µM, the “inhibition of Tgat GEF activity” value is listed as “inhibited Tgat GEF activity in a dose-dependent manner; also recorded: low micromolar range” and the “efficiency at inhibiting the exchange activity of Tgat relative to TRIPα” value is recorded as “about 15 times”. The “inhibition of Tgat exchange activity on RhoA” value in the experiment with Tgat [2] is “fully inhibited”. For the same substance, the “effect on exchange activity of Lbc/RhoA” value with Lbc is “no effect”. Further, in the experiment with p63RhoGEF, the “effect on exchange activity of p63RhoGEF/RhoA” value is on record as “no effect”. In the experiment with Trio DH1-PH1, the “effect on exchange activity of Trio DH1-PH1/RhoG” value is recorded as “no effect”. In experiment [3], the “inhibition of Tgat-mediated activation of RhoA in cells” value is on record as “more efficient than TRIPT16M/L17S”.

For the substance GST-TRIPT16M/L17S, in the experiment with Tgat [1], the “efficiency relative to TRIPα (Tgat GEF activity)” value is reported as 15 fold, the Ki was found to be 5.1 ± 4 µM, the “inhibition of Tgat GEF activity” value was “inhibited Tgat GEF activity in a dose-dependent manner; also recorded: low micromolar range” and the “efficiency at inhibiting the exchange activity of Tgat relative to TRIPα” value is recorded as “about 15 times”. Also, the “inhibition of Tgat exchange activity on RhoA” value in the experiment on Tgat [2] was “fully inhibited”. The “effect on exchange activity of Lbc/RhoA” value at Lbc is recorded as “no effect”. In addition, the “effect on exchange activity of p63RhoGEF/RhoA” value on p63RhoGEF is reported as “no effect”. Also, on Trio DH1-PH1, the “effect on exchange activity of Trio DH1-PH1/RhoG” value is recorded as “no effect”. In experiment [3], the “inhibition of Tgat-mediated activation of RhoA in cells” value is reported as “TRIPE32G was more efficient than TRIPT16M/L17S”.
